Laboratory results: patent publication US7235262B2, “Use of bioactive fraction from cow urine distillate (‘Go-mutra’) as a bio-enhancer of anti-infective, anti-cancer agents and nutrients” (Council of Scientific and Industrial Research, priority 2000, dated 2007)
≈ marks a conversion by molar mass, not a printed value. Like-named read-outs stand apart in the source and are kept apart here.

Columns and labels:
Escherichia coli = experiment: Broth assay for bio-enhancement of antibiotic killing, Gram-negative bacterium; conditions: cow urine distillate 1 μl/mL
Protocol: (§1) For this, the cells are treated with compound for 4 to 8 hours and then washed free of it by centrifugation and washing in sterile water. This was followed by treatment with antibiotic as in steps b to d.
(§2) In the next step of elucidation of the enhancer action, the applicants experimented with the killing activities of different antibiotics against the bacteria singly and in combination with the test component (cow urine distillate) following the method described above. […] In all the experiments the cow urine distillate concentration was kept at 1 μl/mL unless it is specifically mentioned.

Mycobacterium smegmatis = experiment: Broth assay for bio-enhancement of antibiotic killing, Mycobacterium smegmatis; conditions: antibiotic 0.5 μg/ml; cow urine distillate 1 μl/mL
Protocol: as §1, §2

Bacillus subtilis = experiment: Broth assay for bio-enhancement of antibiotic killing, Gram-positive bacterium; conditions: cow urine distillate 1 μl/mL
Protocol: as §1, §2

fungal strains [1] = experiment: organism not typed; conditions: read-out: Minimum inhibitory Concentration (MIC)
Protocol: (§3) The methodology followed by us for this screening included specifically designed bioassays as described below.
as §1
(§4) The Concentration of the Active Fraction is Kept at 10 μg/ml.

fungal strains [2] = conditions: active fraction Gm-IV, where present, at 10 μg/ml
Protocol: as §3, §1, §4

[3] = system: oxyR mutant of bacterium Escherichia coli; format: cell-based
[4] = Bioavailability test through biological membrane (U-tube); format: in vitro ADME, goat; conditions: Rifampicin 1 mg/ml, Fraction Gm-IV (where present) 1.0 μg/ml
[5] = system: MCF-7 (Breast cancer cell line); format: cell-based; conditions: for Final titre of viable cells upon treatment with taxol alone / Final titre of viable cells upon treatment with taxol + cow urine distillate: MCF-7, count after 36 hours; for Final titre of viable cells upon treatment with taxol + cow urine distillate: cow urine distillate 1 μl/ml

CC1(C)S[C@@H]2[C@H](NC(=O)[C@H](N)c3ccccc3)C(=O)N2[C@H]1C(=O)O [Ampicillin]
Fold enhancement in antibiotic activity (Escherichia coli; antibiotic 4 μg/ml): 1.85 | Fold enhancement in antibiotic activity (Escherichia coli; antibiotic 6 μg/ml): 4.50 | Fold enhancement in antibiotic activity (Escherichia coli; antibiotic 8 μg/ml): 5.00 | Fold enhancement in antibiotic activity (Mycobacterium smegmatis): 11.6 | Fold enhancement in antibiotic activity (Bacillus subtilis; antibiotic 0.1 μg/ml): 3.3 | Fold enhancement in antibiotic activity (Bacillus subtilis; antibiotic 0.5 μg/ml): 3.0

Clc1ccccc1C(c1ccccc1)(c1ccccc1)n1ccnc1 [Clotrimazol]
MIC (fungal strains [1]): 4.4 mg/L (≈ 12.8 µM) | Fold enhancement (fungal strains [2]): 0.0

NNC(=O)c1ccncc1 [Isoniazid]
enhancement action of the distillate for INH [3]: enhancement action

CO[C@H]1/C=C/O[C@@]2(C)Oc3c(C)c(O)c4c(O)c(c(/C=N/N5CCN(C)CC5)c(O)c4c3C2=O)NC(=O)/C(C)=C\C=C\[C@H](C)[C@H](O)[C@@H](C)[C@@H](O)[C@@H](C)[C@H](OC(C)=O)[C@@H]1C [Rifampicin]
OD measured as Absorbance across the membrane in receiving tube ([4]; A340, after 1 hr): 0.0097 | OD measured as Absorbance across the membrane in receiving tube ([4]; A340, after 2 hr): 0.0214 | OD measured as Absorbance across the membrane in receiving tube ([4]; A340, after 4 hr): 0.0771 | OD measured as Absorbance across the membrane in receiving tube ([4]; A340, after 5 hr): 0.0858 | OD measured as Absorbance across the membrane in receiving tube ([4]; A340, after 6 hr): 0.0910 | OD measured as Absorbance across the membrane in receiving tube ([4]; A475, after 1 hr): 0.0177 | OD measured as Absorbance across the membrane in receiving tube ([4]; A475, after 2 hr): 0.0284 | OD measured as Absorbance across the membrane in receiving tube ([4]; A475, after 3 hr): 0.0309 | OD measured as Absorbance across the membrane in receiving tube ([4]; A475, after 4 hr): 0.0412 | OD measured as Absorbance across the membrane in receiving tube ([4]; A475, after 5 hr): 0.0484 | OD measured as Absorbance across the membrane in receiving tube ([4]; A475, after 6 hr): 0.0496

CC(=O)O[C@H]1C(=O)[C@@]2(C)[C@H]([C@H](OC(=O)c3ccccc3)[C@]3(O)C[C@H](OC(=O)[C@H](O)[C@@H](NC(=O)c4ccccc4)c4ccccc4)C(C)=C1C3(C)C)[C@]1(OC(C)=O)CO[C@@H]1C[C@@H]2O [Taxol, Paclitaxel]
Final titre of viable cells upon treatment with taxol alone ([5]; Taxol 0.001 μg/ml): 0.059 × 10^6 | Final titre of viable cells upon treatment with taxol + cow urine distillate ([5]; Taxol 0.001 μg/ml): 0.039 × 10^6 | Final titre of viable cells upon treatment with taxol alone ([5]; Taxol 0.005 μg/ml): 0.042 × 10^6 | Final titre of viable cells upon treatment with taxol + cow urine distillate ([5]; Taxol 0.005 μg/ml): 0.032 × 10^6 | Final titre of viable cells upon treatment with taxol alone ([5]; Taxol 0.01 μg/ml): 0.036 × 10^6 | Final titre of viable cells upon treatment with taxol + cow urine distillate ([5]; Taxol 0.01 μg/ml): 0.012 × 10^6 | killing action of Taxol with cow urine distillate ([5]; cancerous cell line MCF-7): increased | enhancement in the activity of taxol by the distillate ([5]; distillate at 1 μl/ml): at least 5 folds
